22 molecules from patent publication US20200055817A1 (AbbVie Deutschland GmbH & Co. KG, priority 2016, published 2020) can be followed below.

Holding throughout (assay type): cell-based
The target in assay [1] is T1, human EDG8 (S1PR5) receptor (Homo sapiens, UniProt Q9H228).
T1 construct: carries the transgenes human EDG8 (S1PR5) receptor (Acession number NP_110387.1); expressed in transfected cells; host or cells: CHO-A21-EDG8#12 (CHO clone co-expressing mitochondrial aequorin and chimaeric Gaqi5)
Description: Aequorin assay, agonist potency, CHO-A21-EDG8#12 cells. To be noted: agonist mode, aequorin luminescence; read-out: S1P5 EC50 range #. An outline of the steps: (§1)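 CHO cells coexpressing receptor, mitochondrial aequorin and Gαqi5 (S1P3 pool: GNA16) were loaded overnight at RT with 5 μM coelenterazine h in 0.1% fatty-acid-free BSA buffer. Cells were injected onto compound, luminescence recorded 90 s and integrated, normalised to digitonin or 20 μM ATP; sigmoidal fit.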

The target of assay [2] is T2, human EDG1 (S1PR1) receptor (Homo sapiens, UniProt P21453).
T2 construct: expressed in transfected cells; host or cells: CHO-A21-Edg1#17 (CHO clone co-expressing mitochondrial aequorin and chimaeric Gaqi5)
Description: Aequorin assay, agonist potency, CHO-A21-Edg1#17 cells. To be noted: agonist mode, aequorin luminescence; read-out: S1P1 EC50. Summed up: as §1

In another assay the target is T3, S1P4 (Homo sapiens, UniProt O95977).
T3 sequence (O95977 1-384): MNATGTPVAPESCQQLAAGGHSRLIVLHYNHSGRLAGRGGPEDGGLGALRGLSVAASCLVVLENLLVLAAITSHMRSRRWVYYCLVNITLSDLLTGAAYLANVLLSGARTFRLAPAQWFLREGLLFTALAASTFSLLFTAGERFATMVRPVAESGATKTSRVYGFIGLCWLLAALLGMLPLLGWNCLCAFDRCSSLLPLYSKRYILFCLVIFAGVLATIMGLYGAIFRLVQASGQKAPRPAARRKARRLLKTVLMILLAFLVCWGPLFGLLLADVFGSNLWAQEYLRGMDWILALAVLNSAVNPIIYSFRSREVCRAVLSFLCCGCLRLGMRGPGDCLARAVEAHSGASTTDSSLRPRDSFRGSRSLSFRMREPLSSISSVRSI
Description: Aequorin assay, agonist potency, S1P4. To be noted: agonist mode, aequorin luminescence. Summed up: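 Aequorin luminescence read over 90 s after adding coelenterazine h–loaded cells (5 μM, overnight, RT) to test compound in phenol red-free DMEM/F12 buffer containing 0.1% fatty acid-free BSA. Responses integrated, scaled to the 100% signal from 100 μM digitonin or 20 μM ATP, and fitted to a sigmoidal dose-response model.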

T1 sequence (Q9H228 whole entry): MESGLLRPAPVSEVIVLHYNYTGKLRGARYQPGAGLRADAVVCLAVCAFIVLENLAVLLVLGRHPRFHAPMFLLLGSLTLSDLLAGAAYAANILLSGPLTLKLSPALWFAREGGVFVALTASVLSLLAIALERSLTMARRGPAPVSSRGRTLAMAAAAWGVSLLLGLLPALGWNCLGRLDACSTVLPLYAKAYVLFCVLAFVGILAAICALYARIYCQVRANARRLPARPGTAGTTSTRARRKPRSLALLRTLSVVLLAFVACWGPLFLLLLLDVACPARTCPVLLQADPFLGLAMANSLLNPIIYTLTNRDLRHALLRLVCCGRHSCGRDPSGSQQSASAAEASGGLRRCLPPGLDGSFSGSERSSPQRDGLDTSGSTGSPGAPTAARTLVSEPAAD
T2 sequence (P21453 whole entry): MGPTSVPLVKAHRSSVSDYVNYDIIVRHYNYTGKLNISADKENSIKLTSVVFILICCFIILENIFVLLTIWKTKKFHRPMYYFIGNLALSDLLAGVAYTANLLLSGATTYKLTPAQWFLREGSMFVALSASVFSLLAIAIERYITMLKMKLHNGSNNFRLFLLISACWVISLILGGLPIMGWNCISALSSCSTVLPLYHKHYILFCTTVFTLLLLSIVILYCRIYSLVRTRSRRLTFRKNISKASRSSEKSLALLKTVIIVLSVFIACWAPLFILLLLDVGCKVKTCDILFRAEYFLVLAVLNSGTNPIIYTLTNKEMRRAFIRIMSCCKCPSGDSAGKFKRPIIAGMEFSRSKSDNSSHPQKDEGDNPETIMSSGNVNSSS

By EC50 is commonly meant the concentration giving half of the maximal effect. Turning to `COc1cccc(Cl)c1COc1ccc2c(c1)CC1(C2)CN(CC(=O)O)C1` [Example 9, 2,2,2-trifluoroacetic acid compound with 2-(5′-((2-chloro-6-methoxybenzyl)oxy)-1′,3′-dihydrospiro[azetidine-3,2′-inden]-1-yl)acetic acid (1:1)], the values for the half-maximal effective concentration (EC50) (in assay [1]; in assay [2]; at S1P4) were 100 to 1000 nM, over 1000 nM and over 1000 nM, respectively.

As to `O=C(O)C1CC(N2CC3(Cc4ccc(C#Cc5ccc(OCC6CC6)nc5)cc4C3)C2)C1` (stereo not drawn) [Example 99, 3-(5′-((6-(cyclopropylmethoxy)pyridin-3-yl)ethynyl)-1′,3′-dihydrospiro[azetidine-3,2′-inden]-1-yl)cyclobutanecarboxylic acid], the EC50 in assay [1] was 100 to 1000 nM; in assay [2] it was under 1000 nM; on S1P4 it was over 1000 nM.

For `O=C(O)C1CC(N2CC3(Cc4ccc(OC5CCc6ccccc65)cc4C3)C2)C1` (stereo not drawn) [Example 104, 3-(5′-((2,3-dihydro-1H-inden-1-yl)oxy)-1′,3′-dihydrospiro[azetidine-3,2′-inden]-1-yl)cyclobutanecarboxylic acid], the EC50 in assay [1] was at most 10 nM; in assay [2], over 1000 nM; at S1P4, under 1000 nM.

For `O=C(O)C1(CN2CC3(Cc4ccc(OCc5cc(F)ccc5C(F)(F)F)cc4C3)C2)CC1` [Example 43, 1-((5′-((5-fluoro-2-(trifluoromethyl)benzyl)oxy)-1′,3′-dihydrospiro[azetidine-3,2′-inden]-1-yl)methyl)cyclopropanecarboxylic acid Compound with 2,2,2-trifluoroacetic acid (1:1)], the 50% effective concentration (EC50) in assay [1] was 1000 to 10000 nM; in assay [2], over 1000 nM; on S1P4, under 1000 nM.

For `O=C(O)CN1CC2(Cc3ccc(OCc4c(F)cccc4F)cc3C2)C1` [Example 13, 2,2,2-trifluoroacetic acid compound with 2-(5′-((2,6-difluorobenzyl)oxy)-1′,3′-dihydrospiro[azetidine-3,2′-inden]-1-yl)acetic acid (1:1)], the EC50 in assay [1] is 10 to 100 nM; in assay [2], over 1000 nM; on S1P4, under 1000 nM.

Regarding `CCc1ccc(COc2ccc3c(c2)CC2(C3)CN(CC(=O)O)C2)c(Cl)c1` [Example 4, 2-(5′-((2-chloro-4-ethylbenzyl)oxy)-1′,3′-dihydrospiro[azetidine-3,2′-inden]-1-yl)acetic acid], the concentration for a half-maximal effect (EC50) in assay [1] was 100 to 1000 nM; in assay [2], over 1000 nM; on S1P4, under 1000 nM.

For `CCOc1ccc(COc2ccc3c(c2)CC2(C3)CN(CC3(C(=O)O)CC3)C2)cc1` [Example 35, 1-((5′-((4-ethoxybenzyl)oxy)-1′,3′-dihydrospiro[azetidine-3,2′-inden]-1-yl)methyl)cyclopropanecarboxylic acid], the EC50 was 1000 to 10000 nM in assay [1], over 1000 nM in assay [2] and under 1000 nM on S1P4.

Regarding `CC1CCC(C#Cc2ccc3c(c2)CC2(C3)CN(CC(=O)O)C2)CC1` (stereo not drawn) [Example 76, 2-(5′-((4-methylcyclohexyl)ethynyl)-1′,3′-dihydrospiro[azetidine-3,2′-inden]-1-yl)acetic acid], the EC50 in assay [1] was at most 10 nM; in assay [2], over 1000 nM; on S1P4, under 1000 nM.

For `CCc1cccc(Cl)c1COc1ccc2c(c1)CC1(C2)CN(C2CC(C(=O)O)C2)C1` (stereo not drawn) [Example 94, 3-(5′-((2-chloro-6-ethylbenzyl)oxy)-1′,3′-dihydrospiro[azetidine-3,2′-inden]-1-yl)cyclobutanecarboxylic acid], the EC50 in assay [1] was at most 10 nM; in assay [2], under 1000 nM; at S1P4, under 1000 nM.

`O=C(O)CN1CC2(Cc3ccc(OCc4c(F)cccc4Cl)cc3C2)C1` [Example 18, 2,2,2-trifluoroacetic acid compound with 2-(5′-((2-chloro-6-fluorobenzyl)oxy)-1′,3′-dihydrospiro[azetidine-3,2′-inden]-1-yl)acetic acid (1:1)]: the values for the EC50 (in assay [1]; in assay [2]; on S1P4) were at most 10 nM, over 1000 nM and under 1000 nM, respectively.

`COc1cccc(F)c1COc1ccc2c(c1)CC1(C2)CN(CC(=O)O)C1` [Example 10, 2,2,2-trifluoroacetic acid compound with 2-(5′-((2-fluoro-6-methoxybenzyl)oxy)-1′,3′-dihydrospiro[azetidine-3,2′-inden]-1-yl)acetic acid (1:1)]: the concentration giving a half-maximal response (EC50) in assay [1] is 100 to 1000 nM; in assay [2], over 1000 nM; on S1P4 it was under 1000 nM.

Take `CC(C)Oc1ccc(CCc2ccc3c(c2)CC2(C3)CN(CC3(C(=O)O)CC3)C2)cn1` [Example 119, 1-((5′-(2-(6-isopropoxypyridin-3-yl)ethyl)-1′,3′-dihydrospiro[azetidine-3,2′-inden]-1-yl)methyl)cyclopropanecarboxylic acid]: the concentration for a half-maximal effect (EC50) in assay [1] is 1000 to 10000 nM; in assay [2], over 1000 nM; at S1P4 it was over 1000 nM.

As for `O=C(O)C1(CN2CC3(Cc4ccc(OCCc5ccccc5F)cc4C3)C2)CC1` [Example 136, 1-((5′-(2-fluorophenethoxy)-1′,3′-dihydrospiro[azetidine-3,2′-inden]-1-yl)methyl)cyclopropanecarboxylic acid], the half-maximal effective concentration (EC50) is 1000 to 10000 nM in assay [1], over 1000 nM in assay [2] and under 1000 nM on S1P4.

Regarding `CC(Oc1ccc(C#Cc2ccc3c(c2)CC2(C3)CN(CC3(C(=O)O)CC3)C2)cn1)C(F)(F)F` (stereo not drawn) [Example 117, 1-((5′-((6-((1,1,1-trifluoropropan-2-yl)oxy)pyridin-3-yl)ethynyl)-1′,3′-dihydrospiro[azetidine-3,2′-inden]-1-yl)methyl)cyclopropanecarboxylic acid], the 50% effective concentration (EC50) is at most 10 nM in assay [1], under 1000 nM in assay [2] and over 1000 nM on S1P4.

`O=C(O)C1(CN2CC3(Cc4ccc(OC5CCc6ccccc65)cc4C3)C2)CC1` (stereo not drawn) [Example 130, 1-((5′-((2,3-dihydro-1H-inden-1-yl)oxy)-1′,3′-dihydrospiro[azetidine-3,2′-inden]-1-yl)methyl)cyclopropanecarboxylic acid]: the EC50 in assay [1] was 1000 to 10000 nM; in assay [2] it was over 1000 nM; on S1P4, under 1000 nM.

As for `Cc1ccccc1COc1ccc2c(c1)CC1(C2)CN(CC2(C(=O)O)CC2)C1` [Example 138, 1-((5′-((2-methylbenzyl)oxy)-1′,3′-dihydrospiro[azetidine-3,2′-inden]-1-yl)methyl)cyclopropanecarboxylic acid], the concentration for a half-maximal effect (EC50) is 1000 to 10000 nM in assay [1], over 1000 nM in assay [2] and under 1000 nM on S1P4.

For the molecule `CCc1cccc(Cl)c1COc1ccc2c(c1)OC1(C2)CN(CC(C)CC(=O)O)C1` (stereo not drawn) [Example 157, 4-(6′-((2-chloro-6-ethylbenzyl)oxy)-3′H-spiro[azetidine-3,2′-benzofuran]-1-yl)-3-methylbutanoic acid], the figures for the EC50 (in assay [1]; in assay [2]; at S1P4) were at most 10 nM, over 1000 nM and under 1000 nM, respectively.

Consider `O=C(O)CN1CC2(Cc3ccc(OCc4ccccc4C(F)(F)F)cc3C2)C1` [Example 12, 2,2,2-trifluoroacetic acid compound with 2-(5′-((2-(trifluoromethyl)benzyl)oxy)-1′,3′-dihydrospiro[azetidine-3,2′-inden]-1-yl)acetic acid (1:1)], for which the figures for the EC50 (in assay [1]; in assay [2]; at S1P4) were 10 to 100 nM, over 1000 nM and under 1000 nM, respectively.

Turning to `O=C(O)C1(CN2CC3(Cc4ccc(OCc5cc(Cl)cnc5Cl)cc4C3)C2)CC1` [Example 124, 1-((5′-((2,5-dichloropyridin-3-yl)methoxy)-1′,3′-dihydrospiro[azetidine-3,2′-inden]-1-yl)methyl)cyclopropanecarboxylic acid], the EC50 in assay [1] is 1000 to 10000 nM; in assay [2] it was over 1000 nM; on S1P4 it was under 1000 nM.

Take `O=C(O)C1CC(N2CC3(Cc4ccc(OCc5ccc(OCC6CC6)cc5)cc4C3)C2)C1` (stereo not drawn) [Example 84, 3-(5′-((4-(cyclopropylmethoxy)benzyl)oxy)-1′,3′-dihydrospiro[azetidine-3,2′-inden]-1-yl)cyclobutanecarboxylic acid]: the 50% effective concentration (EC50) in assay [1] was 1000 to 10000 nM; in assay [2], over 1000 nM; at S1P4 it was over 1000 nM.

For the molecule `O=C(O)C1CC(N2CC3(Cc4ccc(OCCc5ccccc5C(F)(F)F)cc4C3)C2)C1` (stereo not drawn) [Example 105, 3-(5′-(2-(trifluoromethyl)phenethoxy)-1′,3′-dihydrospiro[azetidine-3,2′-inden]-1-yl)cyclobutanecarboxylic acid], the figures for the half-maximal effective concentration (EC50) (in assay [1]; in assay [2]; on S1P4) were 1000 to 10000 nM, over 1000 nM and under 1000 nM, respectively.

Turning to `O=C(O)C1(CN2CC3(Cc4ccc(OCc5ccc(Cl)cc5)cc4C3)C2)CC1` [Example 33, 1-((5′-((4-chlorobenzyl)oxy)-1′,3′-dihydrospiro[azetidine-3,2′-inden]-1-yl)methyl)cyclopropanecarboxylic acid], the EC50 in assay [1] is 1000 to 10000 nM; in assay [2] it was over 1000 nM; on S1P4, under 1000 nM.
